Values of other authors in patent US9289495B2, “Systems and methods for treatment of allergies and other indications” (Strategic Science & Technologies, LLC, priority 2011, dated 2016).

pKa: 8.7-9.2
SMILES: CN(C)CCOC(C)(c1ccccc1)c1ccccn1 (stereo not shown) [doxylamine]
